Reference: patent US6809091B1, “Substances capable of inducing apoptosis” (Takara Bio Inc., priority 1998, dated 2004)

Columns and labels:
[1] = test system: human promyelocytic leukemia HL-60; experiment: MTT method: cell growth suppressing / apoptosis-inducing activity; type: cell-based; details: for cancer cell growth suppressing activity and apoptic body formation: HL-60, MTT method of Example 4-(2), sample in 50% ethanol, 16 hours; for apoptosis-inducing activity / cancer cell growth suppressing activity: HL-60, MTT method of Example 1, 48 hours
Experimental: Heated and non-heated substances of each of them were sterilized by a membrane filter of 0.22 μm to prepare samples for the apoptosis-inducing activity. Those samples were diluted with aseptic distilled water to an extent of 2-, 4-, 8-, 16- and 32-fold, their activity for suppressing the cell growth to the human promyelocytic leukemia HL-60 was measured as follows and their intensity or the apoptosis-inducing activity was compared.
Thus, 10 μl of each of the diluted solutions or 10 μl of aseptic distilled water were placed in a well of a 96-well microtiter plate. Then 90 μl of an RPMI 1640 medium (manufactured by Nissui) containing 10% of fetal bovine serum (manufactured by Gibco) which contained 5000 HL-60 cells (ATCC CCL240) were added thereto and an incubation was carried out at 37° C. for 48 hours in the presence of 5% carbon dioxide gas. After observing the shape of the cells under an optical microscope, 10 μl of a phosphate-buffered aqueous saline solution containing 5 mg/ml of 3-(4,5-dimethylthiazol-2-yl)-2,5-diphenyltetrazolium bromide (MTT; manufactured by Sigma), an incubation was continued for four hours more and state of growth of cells and formation of formazan produced in the cells were observed under a microscope. Further, 100 μl of 2-propanol containing 0.04N HCl were added thereto followed by well stirring and the absorbance at 590 nm was measured and used as a degree of growth of cells (an MTT method).
The solvent of the fraction was appropriately evaporated to substitute with a 50% aqueous solution of ethanol and the activity for suppressing the growth of cancer cells was measured by an MTT method mentioned in Example 1 except that the sample was diluted to a two-fold series using a 50% aqueous solution of ethanol and 2 μl of each of the diluted solutions or 2 μl of a 50% aqueous solution of ethanol were placed in a well of a flat-bottom 96-well microplate. Time for incubation was 16 hours.

[2] = test system: hIGF-1 production in Hs68 cells; experiment: induction of hIGF-1 production, ELISA; type: cell-based, human; details: for time at which the inducing activity of the hIGF production became maximum: 100 μM or more
Experimental: Hs 68 cells (ATCC CRL-1635) which were human […] were incubated on a D-MEM medium (manufactured by Gibco BRL) containing 10% of fetal bovine serum (FBS manufactured by BioWhittaker) at 37° C. in the presence of 5% of CO2 until the cells were saturated in the culture medium, a trypsin-EDTA solution (manufactured by BioWhittaker) was suspended in the above medium to make 3×10^5 cells/ml and each 200 μl of the suspension were placed in each well of a 96-well microtiter plate. After five days from the incubation, the medium was discarded at the stage where the cells were almost saturated in the culture medium and a medium containing 5, 10, 20, 40, 100 or 200 μM of 4,5-dihydroxy-2-pentenal or 4-hydroxy-2-cyclopenten-1-one was added thereto. A time course of 96 hours was adopted and, every 24 hours, the supernatant liquid of the incubated medium was recovered and the influence of 4,5-dihydroxy-2-pentenal and 4-hydroxy-2-cyclopenten-1-one on the induction of hIGF-1 production in Hs68 cells was measured using an ELISA-kit for hIGF-1 (manufactured by Diagnostic System Labo).

[3] = test system: heat shock protein of 70 kDa in HL-60; experiment: induction of heat shock protein of 70 kDa, SDS-PAGE and blotting; type: cell-based, human; design: key: “−” means no induction; “±” means a little induction; “+” shows the intensity of induction and the more the “+”, the more the induction; ++: “+” shows the intensity of induction and the more the “+”, the more the induction; +++: “+” shows the intensity of induction and the more the “+”, the more the induction; details: six hours
Experimental: Each 5 ml of an RPMI 1640 medium containing 10% of FBS containing 2×10^5 cells/ml of HL-60 (ATCC CCL-240) were placed in each well of a six-well plate, incubated at 37° C. for 24 hours in the presence of 5% CO2, then 4,5-dihydroxy-2-pentenal was added to make the final concentration 0, 12.5, 25, 50 or 100 μM or 4-hydroxy-2-cyclopenten-1-one was added to make the final concentration 0, 2.5, 5, 10, 20, 40 or 80 μM and the mixture was incubated for six hours more.
After completion of the incubation, cell numbers were counted and then the cells were recovered by centrifugation and washed with PBS to prepare the cells treated with each of the samples. In addition, cells which were heated at 45° C. for five minutes followed by subjecting to the same incubation were prepared as well.
The cells treated as such were then subjected to an SDS-PAGE according to a method mentioned in “Molecular Cloning” (Cold Spring Harbor Laboratory Press, 1989). Thus, the cells were suspended in an SDS-PAGE sample buffer to make the concentration 2.5×10^6 cells/ml, the resulting cell suspension was treated at 100° C. for ten minutes, each 5 μl thereof were applied to two sheets of SDS-PAGE gel (a 5% stacking gel and a 10% separation gel) and an electrophoresis was carried out. One of the gels was stained with Coomassie while another was subjected to a blotting to polyvinylidene difluoride transfer membrane (Immobilon™ manufactured by MILLIPORE; catalog no. IPVH000-10). This membrane was subjected to a blocking overnight at 4° C. using Block Ace (manufactured by Dainippon Pharmaceutical; catalog no. UK-B25).
The membrane which was subjected to a blocking as such was made to react with monoclonal antibody HSP 72/73 (Ab-1) (manufactured by Oncogene Research Products; catalog no. HSP01) which specifically reacted with heat-induced heat shock protein of 70 kDa, washed with TBS containing 0.05% Tween 20 and further washed with TBS. After that, it was made to react with peroxidase-compounded secondary antibody HRP-Rabbit Anti Mouse IgG (H+L) (manufactured by ZYMED Laboratories; catalog no. 61-6520) and washed as same as in the previous operation. The membrane which was made to react with the primary antibody and the secondary antibody as such was made to react with RENAISSANCE™ (a chemiluminol reagent manufactured by Dupont NEN, catalog no. NEL-100) and then exposed to X-ray film to confirm the induction of the heat shock protein of 70 kDa.

mice = experiment: acute toxicity, single oral administration; type: in vivo; details: single oral administration of 100 mg/kg
Experimental: When a physiologically active effective dose of the heat-treated product of the present invention and partially purified product thereof and the compound of the present invention are/is administered to mice, no acute toxicity is noted.

Row | Compound | cancer cell growth suppressing activity and apoptic body formation [1] | Inducing Activity of the hIGF-1 Production ([2]; 40 μM, 24 hours) [ng/mL] | Inducing Activity of the hIGF-1 Production ([2]; 40 μM, 48 hours) [ng/mL] | Inducing Activity of the hIGF-1 Production ([2]; 40 μM, 72 hours) [ng/mL] | Inducing Activity of the hIGF-1 Production ([2]; 40 μM, 96 hours) [ng/mL] | time at which the inducing activity of the hIGF production became maximum [2] [h] | Inducing Activity of the hIGF-1 Production ([2]; 100 μM, 24 hours) [ng/mL] | Inducing Activity of the hIGF-1 Production ([2]; 100 μM, 48 hours) [ng/mL] | Inducing Activity of the hIGF-1 Production ([2]; 100 μM, 72 hours) [ng/mL] | Inducing Activity of the hIGF-1 Production ([2]; 100 μM, 96 hours) [ng/mL] | Inducing Activity of the hIGF-1 Production ([2]; 200 μM, 24 hours) [ng/mL] | Inducing Activity of the hIGF-1 Production ([2]; 200 μM, 48 hours) [ng/mL] | Inducing Activity of the hIGF-1 Production ([2]; 200 μM, 72 hours) [ng/mL] | Inducing Activity of the hIGF-1 Production ([2]; 200 μM, 96 hours) [ng/mL] | death (mice) | other results
1 | O=C1C=CC(O)C1 (stereo not drawn) [4-hydroxy-2-cyclopenten-1-one] | strong activity | 0 | 0 | 0 | 0 | 24 | 39.9 | 10.0 | 9.6 | 4.4 | 37.9 | 10.4 | 9.9 | 4.2 | no case of death | hIGF-1 inducing activity [2]: stronger than that of 4,5-dihydroxy-2-pentenal; intensity of induction of heat shock protein of 70 kDa ([3]; HL-60, 5 μM): ±; intensity of induction of heat shock protein of 70 kDa ([3]; HL-60, 20 μM): +++; intensity of induction of heat shock protein of 70 kDa ([3]; HL-60, 40 μM): ++; intensity of induction of heat shock protein of 70 kDa ([3]; HL-60, 80 μM): ±
2 | O=C/C=C/C1COC(/C=C/C(O)CO)O1 (stereo not drawn) [2-(trans-3,4-dihydroxy-1-butenyl)-4-(trans-2-formylvinyl)-1,3-dioxolane] | noted |  |  |  |  |  |  |  |  |  |  |  |  |  |  | 
3 | O=CC=CC(O)CO (single isomer, unassigned) [4,5-dihydroxy-2-pentenal, trans-4,5-dihydroxy-2-pentenal] | strong activity | 0 | 0 | 0 | 0 | 24 | 15.3 | 10.0 | 5.2 | 4.6 | 11.3 | 11.1 | 9.9 | 4.5 | no case of death | apoptosis-inducing activity / cancer cell growth suppressing activity [1]: strong; apoptosis-inducing activity / cancer cell growth suppressing activity ([1]; listed as fraction 4): strong activity; intensity of induction of heat shock protein of 70 kDa ([3]; HL-60, 25 μM): ±; intensity of induction of heat shock protein of 70 kDa ([3]; HL-60, 50 μM): +++; intensity of induction of heat shock protein of 70 kDa ([3]; HL-60, 100 μM): −
4 | Nc1nc2c(ncn2C2C=CC(=O)C2)c(=O)[nH]1 (stereo not drawn) [4-(9-guaninyl)-2-cyclopenten-1-one] |  |  |  |  |  |  |  |  |  |  |  |  |  |  |  | concentration of dried product showing deformation and apoptic body formation in the cells ([1]; HL-60, MTT assay): about 13 μg/ml
